Test results from publication PMC4300089, “Structure-Guided Design of Selective Epac1 and Epac2 Agonists” (PLoS Biology, 2015).

Experiments:
Assay type in all cases: biochemical
[1] = target: T1, Epac1 (Homo sapiens, UniProt O95398); assay: Epac activation assay, Epac1
T1 construct: made in house
T1 sequence (O95398 150-881 isoform O95398-3): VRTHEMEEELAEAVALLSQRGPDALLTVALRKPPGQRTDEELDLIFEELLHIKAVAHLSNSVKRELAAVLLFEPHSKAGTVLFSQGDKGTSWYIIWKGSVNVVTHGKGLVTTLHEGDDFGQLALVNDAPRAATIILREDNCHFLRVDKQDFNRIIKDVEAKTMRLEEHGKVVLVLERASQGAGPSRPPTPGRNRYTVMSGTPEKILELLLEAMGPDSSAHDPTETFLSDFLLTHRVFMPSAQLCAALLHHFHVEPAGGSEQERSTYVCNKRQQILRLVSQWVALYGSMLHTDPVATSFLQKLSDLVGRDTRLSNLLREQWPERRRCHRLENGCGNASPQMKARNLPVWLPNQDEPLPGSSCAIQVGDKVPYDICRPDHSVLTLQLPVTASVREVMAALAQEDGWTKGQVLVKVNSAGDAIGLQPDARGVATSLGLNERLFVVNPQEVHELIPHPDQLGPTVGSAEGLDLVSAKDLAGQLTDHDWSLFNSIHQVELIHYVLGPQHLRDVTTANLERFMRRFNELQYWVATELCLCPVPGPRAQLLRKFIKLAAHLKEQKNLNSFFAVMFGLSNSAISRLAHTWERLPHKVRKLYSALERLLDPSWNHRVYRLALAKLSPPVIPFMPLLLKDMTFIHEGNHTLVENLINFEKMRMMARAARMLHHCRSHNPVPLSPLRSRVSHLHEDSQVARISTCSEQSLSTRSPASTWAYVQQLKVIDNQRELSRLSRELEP

[2] = target: T2, PKA-Iα (Homo sapiens, UniProt P10644); assay: PKA activity assay (coupled spectrophotometric, Kemptide), PKA-Iα; settings: for A (PKA activity): PKAIα
T2 construct: made in house
Protocol: The recombinant human PKA catalytic subunit (Cα1) and the four human PKA regulatory subunits (RIα, RIβ, RIIα, RIIβ) were expressed, purified, and characterized as described. […] PKA holoenzymes were formed by mixing the R- and C-subunit at a molar ratio of 1.2:1 and extensive dialysis against 20 mM MOPS (pH 7.0), 150 mM NaCl, 2.5 mM β-mercaptoethanol, supplemented with 1 mM ATP and 10 mM MgCl2 for PKA-I at 4°C overnight. PKA holoenzymes were used at about 20 nM for the activation assay. The apparent activation constants (Kact) were determined by fitting the concentration-dependent activity to a sigmoid dose-response model.

[3] = target: T3, Epac2^Δ280,K450E (Mus musculus, UniProt Q9EQZ6, K468E); assay: Epac activation assay, Epac2 K450E mutant
T3 construct: made in house
T3 sequence (Q9EQZ6 281-993 isoform Q9EQZ6-3 K450E): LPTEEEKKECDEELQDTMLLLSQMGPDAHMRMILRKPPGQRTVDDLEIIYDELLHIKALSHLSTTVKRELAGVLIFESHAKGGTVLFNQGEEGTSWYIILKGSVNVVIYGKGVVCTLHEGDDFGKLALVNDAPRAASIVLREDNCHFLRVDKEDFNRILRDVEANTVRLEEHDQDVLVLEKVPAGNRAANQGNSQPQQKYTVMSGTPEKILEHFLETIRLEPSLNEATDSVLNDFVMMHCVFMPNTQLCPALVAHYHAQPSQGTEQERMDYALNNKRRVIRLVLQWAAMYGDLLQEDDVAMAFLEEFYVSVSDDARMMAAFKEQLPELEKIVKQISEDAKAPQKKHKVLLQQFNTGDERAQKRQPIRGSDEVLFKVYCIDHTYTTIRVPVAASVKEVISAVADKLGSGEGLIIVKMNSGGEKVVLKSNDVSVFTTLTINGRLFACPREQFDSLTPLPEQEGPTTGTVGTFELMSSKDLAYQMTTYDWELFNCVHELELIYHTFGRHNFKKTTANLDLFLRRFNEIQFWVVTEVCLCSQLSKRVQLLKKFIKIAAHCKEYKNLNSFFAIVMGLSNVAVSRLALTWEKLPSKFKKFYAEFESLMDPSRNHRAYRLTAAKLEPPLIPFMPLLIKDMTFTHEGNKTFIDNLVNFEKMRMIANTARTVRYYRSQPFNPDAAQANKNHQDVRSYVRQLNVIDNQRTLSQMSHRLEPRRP
Protocol: Murine Epac2 was used as all previous structural studies were performed with it.
The activity of Epac was determined by a fluorescence assay. […] The fluorescence intensity of Rap1B•mGDP is approximately twice that of free mGDP, and thus, nucleotide exchange can be observed as a decay in fluorescence upon the addition of excess unlabeled GDP.

T2 sequence (P10644 whole entry): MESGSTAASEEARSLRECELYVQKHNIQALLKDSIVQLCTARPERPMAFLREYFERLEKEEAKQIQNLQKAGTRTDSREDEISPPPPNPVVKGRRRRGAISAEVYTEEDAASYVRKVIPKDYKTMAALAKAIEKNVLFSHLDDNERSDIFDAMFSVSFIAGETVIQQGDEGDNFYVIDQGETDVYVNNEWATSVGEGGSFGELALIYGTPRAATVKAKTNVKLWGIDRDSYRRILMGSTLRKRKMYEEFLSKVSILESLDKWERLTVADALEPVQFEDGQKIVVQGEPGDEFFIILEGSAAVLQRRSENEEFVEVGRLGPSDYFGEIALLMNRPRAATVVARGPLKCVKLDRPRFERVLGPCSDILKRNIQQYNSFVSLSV

Compound: Cc1ccc(CSc2nc3c(N)ncnc3n2[C@@H]2O[C@@H]3CO[P@](O)(=S)O[C@H]3[C@H]2O)cc1 [S-230, Sp-8-pMeBnT-cAMPS]
- kobs ([1]; 0.3 μM compound): 1e-05 s⁻¹
- kobs ([1]; 0.5 μM compound): 1e-05 s⁻¹
- kobs ([1]; 0.8 μM compound): 1.1e-05 s⁻¹
- kobs ([1]; 1 μM compound): 1.4e-05 s⁻¹
- kobs ([1]; 2 μM compound): 2.1e-05 s⁻¹
- kobs ([1]; 3 μM compound): 2.6e-05 s⁻¹
- kobs ([1]; 4 μM compound): 3e-05 s⁻¹
- kobs ([1]; 5 μM compound): 3.3e-05 s⁻¹
- kobs ([1]; 6 μM compound): 3.8e-05 s⁻¹
- kobs ([1]; 7 μM compound): 4.1e-05 s⁻¹
- kobs ([1]; 10 μM compound): 5.6e-05 s⁻¹
- kobs ([1]; 20 μM compound): 9.4e-05 s⁻¹
- kobs ([1]; 30 μM compound): 0.000115 s⁻¹
- kobs ([1]; 40 μM compound): 0.000131 s⁻¹
- kobs ([1]; 50 μM compound): 0.000148 s⁻¹
- kobs ([1]; 60 μM compound): 0.000156 s⁻¹
- kobs ([1]; 70 μM compound): 0.000164 s⁻¹
- kobs ([1]; 80 μM compound): 0.00017 s⁻¹
- kobs ([1]; 100 μM compound): 0.000198 s⁻¹
- kobs ([1]; 200 μM compound): 0.000232 s⁻¹
- kobs ([1]; 400 μM compound): 0.000232 s⁻¹
- kobs ([1]; 600 μM compound): 0.000218 s⁻¹
- kobs ([1]; 800 μM compound): 0.000186 s⁻¹
- A (PKA activity) ([2]; concentration 1 μM): 2.9904 U/mg
- A (PKA activity) ([2]; concentration 1.00E+01 μM): 1.9936 U/mg
- A (PKA activity) ([2]; concentration 1.00E-01 μM): 3.8864 U/mg
- A (PKA activity) ([2]; concentration 1.00E-02 μM): 2.632 U/mg
- A (PKA activity) ([2]; concentration 1.00E-03 μM): 3.2928 U/mg
- A (PKA activity) ([2]; concentration 1.00E-05 μM): 2.7664 U/mg
- A (PKA activity) ([2]; concentration 5.00E+02 μM): 2.9232 U/mg

Compound: Nc1ncnc2c1nc(SCc1ccccc1)n2[C@@H]1O[C@@H]2CO[P@](O)(=S)O[C@H]2[C@H]1O [S-220, Sp-8-BnT-cAMPS]
- kobs ([1]; 0.01 μM compound): 1.6e-05 s⁻¹
- kobs ([1]; 0.05 μM compound): 1.5e-05 s⁻¹
- kobs ([1]; 0.08 μM compound): 1.6e-05 s⁻¹
- kobs ([1]; 0.1 μM compound): 1.7e-05 s⁻¹
- kobs ([1]; 0.2 μM compound): 1.7e-05 s⁻¹
- kobs ([1]; 0.3 μM compound): 2e-05 s⁻¹
- kobs ([1]; 0.5 μM compound): 2.2e-05 s⁻¹
- kobs ([1]; 0.6 μM compound): 2.5e-05 s⁻¹
- kobs ([1]; 0.7 μM compound): 2.7e-05 s⁻¹
- kobs ([1]; 0.8 μM compound): 2.8e-05 s⁻¹
- kobs ([1]; 1 μM compound): 4.3e-05 s⁻¹
- kobs ([1]; 2 μM compound): 5.8e-05 s⁻¹
- kobs ([1]; 3 μM compound): 7.9e-05 s⁻¹
- kobs ([1]; 4 μM compound): 9.2e-05 s⁻¹
- kobs ([1]; 5 μM compound): 0.000102 s⁻¹
- kobs ([1]; 6 μM compound): 0.000128 s⁻¹
- kobs ([1]; 7 μM compound): 0.000149 s⁻¹
- kobs ([1]; 8 μM compound): 0.000153 s⁻¹
- kobs ([1]; 10 μM compound): 0.000213 s⁻¹
- kobs ([1]; 20 μM compound): 0.000263 s⁻¹
- kobs ([1]; 30 μM compound): 0.000312 s⁻¹
- kobs ([1]; 40 μM compound): 0.00033 s⁻¹
- kobs ([1]; 50 μM compound): 0.000328 s⁻¹
- kobs ([1]; 60 μM compound): 0.000336 s⁻¹
- kobs ([1]; 70 μM compound): 0.000338 s⁻¹
- kobs ([1]; 80 μM compound): 0.000331 s⁻¹
- AC50 ([1]; Epac1): 13 µM
- ability to reach half-maximal cAMP activity ([1]; Epac1): cannot activate Epac1 to the level of half-maximal cAMP-activity
- Rel. kmax ([1]; Epac1, maximal activity relative to cAMP): 0.3
- kobs ([3]; 0.001 μM compound): 3.4e-05 s⁻¹
- kobs ([3]; 0.003 μM compound): 4.1e-05 s⁻¹
- kobs ([3]; 0.005 μM compound): 4.7e-05 s⁻¹
- kobs ([3]; 0.008 μM compound): 5.6e-05 s⁻¹
- kobs ([3]; 0.01 μM compound): 7.9e-05 s⁻¹
- kobs ([3]; 0.03 μM compound): 0.000149 s⁻¹
- kobs ([3]; 0.04 μM compound): 0.000174 s⁻¹
- kobs ([3]; 0.05 μM compound): 0.000201 s⁻¹
- kobs ([3]; 0.06 μM compound): 0.000239 s⁻¹
- kobs ([3]; 0.07 μM compound): 0.000269 s⁻¹
- kobs ([3]; 0.08 μM compound): 0.000291 s⁻¹
- kobs ([3]; 0.1 μM compound): 0.000329 s⁻¹
- kobs ([3]; 0.2 μM compound): 0.000621 s⁻¹
- kobs ([3]; 0.3 μM compound): 0.000717 s⁻¹
- kobs ([3]; 0.4 μM compound): 0.000786 s⁻¹
- kobs ([3]; 0.5 μM compound): 0.000805 s⁻¹
- kobs ([3]; 0.6 μM compound): 0.000891 s⁻¹
- kobs ([3]; 0.7 μM compound): 0.000938 s⁻¹
- kobs ([3]; 0.8 μM compound): 0.000942 s⁻¹
- kobs ([3]; 1 μM compound): 0.000907 s⁻¹
- kobs ([3]; 2 μM compound): 0.00111 s⁻¹
- kobs ([3]; 3 μM compound): 0.00113 s⁻¹
- kobs ([3]; 4 μM compound): 0.00112 s⁻¹
- kobs ([3]; 5 μM compound): 0.00108 s⁻¹
- kobs ([3]; 6 μM compound): 0.00112 s⁻¹
- kobs ([3]; 7 μM compound): 0.00112 s⁻¹
- kobs ([3]; 8 μM compound): 0.00112 s⁻¹
- kobs ([3]; 10 μM compound): 0.00104 s⁻¹
- Kact compared to cAMP (times higher) ([2]; PKA-Iα): three to eight times higher
- EC50 ([2]; PKA-Iα, read-out: Kact): 0.29 µM
- A (PKA activity) ([2]; concentration 1 μM): 1.97E+01 U/mg
- A (PKA activity) ([2]; concentration 1.00E+01 μM): 2.59E+01 U/mg
- A (PKA activity) ([2]; concentration 1.00E-01 μM): 9.4227 U/mg
- A (PKA activity) ([2]; concentration 1.00E-02 μM): 3.6309 U/mg
- A (PKA activity) ([2]; concentration 1.00E-03 μM): 3.7632 U/mg
- A (PKA activity) ([2]; concentration 1.00E-05 μM): 3.6309 U/mg
- A (PKA activity) ([2]; concentration 2.50E+02 μM): 2.40E+01 U/mg
- A (PKA activity) ([2]; concentration 2.50E-01 μM): 1.33E+01 U/mg
- A (PKA activity) ([2]; concentration 5.00E+01 μM): 2.52E+01 U/mg
